Data on two compounds can be found in PubChem BioAssay (NCI).

Common to all, as to experiment: DTP human tumour cell line panel, 48 h
Assay [1] has as its system 786-0 renal.
The subject of assay [2] is HCC-2998 colon.
For assay [3], the system named is HS 578T breast.
Assay [4] concerns LOX IMVI melanoma.
The subject of assay [5] is NCI-H460 lung.
Assay [6] concerns SNB-19 CNS.
Assay [7] concerns SR leukemia.
Assay [8] deals with SW-620 colon.
Assay [9] relates to U251 CNS.
Assay [10] has as its system UACC-62 melanoma.

SMILES strings stand for the structures.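 Five concentrations, 48 hours, 96-well plates. GI50 = concentration required for 50% inhibition of growth. TGI: concentration producing complete growth inhibition.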

The GI50 is the concentration giving 50% growth inhibition. The term TGI denotes the concentration giving total growth inhibition. High values mean lower sensitivity of the cells, low ones greater sensitivity of the cells. With `Cc1nc2sc(C(=O)Nc3cccc(Cl)c3C)c(N)c2cc1C(=O)c1ccccc1`, the GI50 in [1] was 296 nM; in assay [2], 1010 nM; in assay [3], 194 nM; in assay [4] it was 331 nM; in assay [5], 198 nM; in assay [6], 222 nM. The GI50 was 131 nM in assay [7], 209 nM in assay [8], 219 nM in assay [9] and 246 nM in [10]. Also, the TGI in assay [1] was over 50000 nM; in [2], over 50000 nM; in assay [3], over 50000 nM; in assay [4] it was over 50000 nM; in [5], 10300 nM; in assay [6], over 50000 nM. For the same compound, the total growth inhibition concentration (TGI) in assay [7] was 16900 nM; in [8] it was over 50000 nM; in [9] it was over 50000 nM; in [10], over 50000 nM.

For the compound `Nc1ncnc2c1c(C(=O)NO)cn2C1OC(CO)C(O)C1O` (stereo not given), the GI50 in assay [1] was 630 nM; in [2] it was 587 nM; in assay [3], 331 nM; in assay [4], 262 nM; in assay [5] it was 431 nM; in [6], 847 nM. The GI50 in [7] is 329 nM; in [8], 252 nM; in assay [9], 419 nM; in [10], 320 nM. The concentration for total growth inhibition (TGI) was 14200 nM in [1]; 6830 nM in [2]; 3540 nM in assay [3]; 1770 nM in assay [4]; 9190 nM in [5]; over 100000 nM in assay [6]. Moreover, the concentration for total growth inhibition (TGI) was 1880 nM in [7], over 31700 nM in [8], over 100000 nM in assay [9] and 1190 nM in assay [10].
